In patent publication US7355047B2, “Substituted quinolone carboxylic acids, their derivatives, site of action, and uses thereof” (The Regents of the University of California, priority 2002, dated 2008):

Legend:
[1] = tested on: GABAA receptor complex (GRC); assay: [35S]TBPS binding, rat cerebellum; settings: 2 nM [35S]TBPS, 30 μM furosemide, FIG. 14
[2] = target: GABAA receptor complex (GRC); assay: [35S]TBPS binding assay, rat cortex; settings: 2 nM [35S]TBPS, rat cortex; for IC50: read-out: IC50 (inhibition of [35S]TBPS binding); for % Inhibition of 2 nM TBPS in Rat Cortex at 10 μM: 10 μM compound, plain numbers = inhibition
[3] = tested on: GABAA receptor complex (GRC); assay: [35S]TBPS binding dissociation, mouse forebrain; settings: 2 nM [35S]TBPS, initiated by 10 μM compound 3, 10 μM mefenamic acid, FIG. 13

Compound | IC50 [2] [nM] | % Inhibition of 2 nM TBPS in Rat Cortex at 10 μM [2] [%] | also measured
NS(=O)(=O)c1cc(C(=O)O)c(NCc2ccco2)cc1Cl [furosemide, reference compound] |  |  | effect on [35S]TBPS binding in absence or presence of furosemide [1]: inability of furosemide to produce a dose-dependent rightward parallel shift
CCn1cc(C(=O)O)c(=O)c2cc(NC3CCCc4ccccc43)c(Cl)cc21 (stereo not drawn) [drawing 15] | 2700 | 70 | 
CCn1cc(C(=O)O)c(=O)c2cc(NCC(C)c3ccccc3)c(Cl)cc21 (stereo not drawn) | 4000 | 65 | 
CCOC(=O)c1cn(CC)c2cc(Cl)c(NC3CCCc4ccccc43)cc2c1=O (stereo not drawn) | 880 |  | 
CCCC(C)C1(CC)C(=O)NC(=O)NC1=O (stereo not drawn) [pentobarbital, reference compound] |  |  | dissociation of [35S]TBPS binding in absence or presence of pentobarbital ([2]; initiated by 10 μM compound 3, 30 μM pentobarbital, FIG. 10): accelerate the dissociation of [^35S]TBPS binding
CCCNC(=O)c1cn(CC)c2cc(Cl)c(NC3CCCc4ccccc43)cc2c1=O (stereo not drawn) | 1500 | 86 | 
CN1C(=O)CN=C(c2ccc(Cl)cc2)c2cc(Cl)ccc21 [4′-chlorodiazepam, reference compound] |  |  | effect on [35S]TBPS binding in absence or presence of Ro5-4864 (4′-chlorodiazepam) ([2]; 0.3, 1 and 30 μM Ro5-4864, FIG. 11): inability of 4′-chlorodiazepam to produce a dose-dependent rightward parallel shift
C[C@H](O)[C@H]1CC[C@H]2[C@@H]3CC[C@H]4C[C@H](O)CC[C@]4(C)[C@H]3CC[C@]12C [5α,20α-diol, 5α-pregnan-3α,20α-diol, reference compound] |  |  | interaction with 5α,20α-diol inhibition of [35S]TBPS binding (neurosteroid site) ([2]; 10 μM compound 3 or 100 nM 3α,5α-P, FIG. 8): antagonize the effect of 3α,5α-P
CCn1cc(C(=O)O)c(=O)c2cc(F)c(N3CCNCC3)cc21 [norfloxacin, reference compound] |  |  | effect on [35S]TBPS binding in absence or presence of norfloxacin ([2]; 30 μM and 100 μM norfloxacin, FIG. 9): inability of norfloxacin to produce a dose-dependent rightward parallel shift
Cc1cccc(Nc2ccccc2C(=O)O)c1C [mefenamic acid, reference compound] |  |  | dissociation of [35S]TBPS binding in absence or presence of mefenamic acid [3]: accelerate the dissociation of [^35S]TBPS binding
CCn1cc(C(=O)O)c(=O)c2cc(NC(C)CCc3ccccc3)c(Cl)cc21 (stereo not drawn) | 2000 | 84 | 
